Data from patent US20260209223A1, “FGFR3 INHIBITOR COMPOUNDS” (TYRA BIOSCIENCES, INC., priority 2022, published 2026).

Columns and labels:
[1] = molecular target: T1, Ba/F3 ETV5-FGFR4 (Homo sapiens, UniProt P22455); assay: Ba/F3 cell viability assay (CellTiter-Glo 2.0); type: cell-based; settings: Ba/F3 cell data, ETV5-FGFR4 fusion, 48 hours
T1 construct: host or cells: Ba/F3; the other entry of the earlier key: ETV5 (P41161, ETS translocation variant 5)
Source text: Experimental Purpose: Recombinant kinase fusions are transduced into parental Ba/F3, which becomes dependent upon this constitutive kinase activity for IL3-independent survival. Inhibition of kinase activity leads to cell death, which is monitored using CellTiter-Glo® 2.0 (Promega) which measures intracellular ATP concentration that in turn serves as a marker for viability. BCR-FGFR1 Ba/F3, BCR-FGFR2 and FGFR3-BAIAP2L1 Ba/F3 were obtained from Advanced Cellular Dynamics (Seattle, WA). ETV6-FGFR4 was obtained from Kyinno (Waltham, MA).
Cell Viability Assay Procedure: Cell Titer-Glo® 2.0 Luminescent cell viability assay reagent was purchased from Promega (Madison, WI). Ba/F3 cell lines were cultured in RPMI1640 media supplemented with 10% fetal bovine serum. Cultures were maintained at 37° C. in a humidified atmosphere of 5% CO2 and 95% air.
Cells were plated in 96-well clear bottom/white plates (Corning #3903) at 10,000 cells/well in 100 μl of media, incubated overnight. The next day, test compound DMSO stock solutions were made at 10 mM and 2 μM final concentration. Compounds were then added to cells in a 9-dose, 10-fold dilution series starting at 30 μM with an HP 300e Digital Dispenser (each dose was applied in triplicate). DMSO was backfilled to each well up to 301 nL total volume of test compound+DMSO, and a total of 301 nL DMSO was added to a control/no test compound well in triplicate. The cells in cell culture plates were incubated with the compounds at 37° C. and 5% CO2 for 48 hours. Then 50 μl of Cell Titer Glo 2.0 reagent was added to each well of the cell culture plates. The contents were covered from light and mixed on an orbital shaker at room temperature for 10 min. Luminescence was recorded by a Synergy H1 Microplate Reader (Biotek, Winooski, VT). Cells were assessed as a percentage of DMSO only treated control cells. Curves were plotted and IC50 values were calculated using the GraphPad Prism 8 program based on a sigmoidal dose-response equation (4 parameter).

[2] = tested on: KatoIIII; assay: Cancer cell line cell viability assay (CellTiter-Glo 2.0); type: cell-based; settings: 72 hours
[3] = molecular target: T2, Ba/F3 BCR-FGFR1 (Homo sapiens, UniProt P11362); assay: Ba/F3 cell viability assay (CellTiter-Glo 2.0); type: cell-based; settings: Ba/F3 cell data, BCR-FGFR1 fusion, 48 hours
T2 construct: BCR (fusion partner); host or cells: Ba/F3; the other entry of the earlier key: BCR (P11274, Breakpoint cluster region protein)
T2 sequence (P11362 478-767 limits assumed): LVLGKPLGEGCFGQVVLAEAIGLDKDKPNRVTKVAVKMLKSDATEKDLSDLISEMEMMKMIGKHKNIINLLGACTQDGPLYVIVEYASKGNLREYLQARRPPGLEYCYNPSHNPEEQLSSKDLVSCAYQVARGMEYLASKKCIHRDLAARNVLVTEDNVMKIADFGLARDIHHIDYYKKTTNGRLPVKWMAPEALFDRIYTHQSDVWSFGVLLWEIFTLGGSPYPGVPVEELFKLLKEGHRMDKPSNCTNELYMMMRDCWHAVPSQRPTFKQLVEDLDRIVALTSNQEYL

[4] = molecular target: T3, Ba/F3 BCR-FGFR2 (Homo sapiens, UniProt P21802); assay: Ba/F3 cell viability assay (CellTiter-Glo 2.0); type: cell-based; settings: Ba/F3 cell data, BCR-FGFR2 fusion, 48 hours
T3 construct: BCR (fusion partner); host or cells: Ba/F3; the other entry of the earlier key: BCR (P11274, Breakpoint cluster region protein)
T3 sequence (P21802 481-770 limits assumed): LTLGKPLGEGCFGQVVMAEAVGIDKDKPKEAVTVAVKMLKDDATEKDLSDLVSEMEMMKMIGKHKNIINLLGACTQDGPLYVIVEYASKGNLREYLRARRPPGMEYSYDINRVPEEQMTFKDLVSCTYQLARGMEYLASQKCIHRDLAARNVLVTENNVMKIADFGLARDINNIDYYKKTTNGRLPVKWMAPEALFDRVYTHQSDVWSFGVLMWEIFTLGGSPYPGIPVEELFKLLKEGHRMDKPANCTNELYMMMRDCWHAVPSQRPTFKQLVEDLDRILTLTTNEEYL

[5] = molecular target: T4, FGFR3 (Homo sapiens, UniProt P22607); assay: Kinase binding assay (Kd), kinase-tagged T7 phage, affinity beads, qPCR; settings: in vitro binding assay, 11-point 3-fold dilution series
T4 construct: made in house; host or cells: E. coli (BL21-derived) infected with T7 phage
T4 sequence (P22607 23-806): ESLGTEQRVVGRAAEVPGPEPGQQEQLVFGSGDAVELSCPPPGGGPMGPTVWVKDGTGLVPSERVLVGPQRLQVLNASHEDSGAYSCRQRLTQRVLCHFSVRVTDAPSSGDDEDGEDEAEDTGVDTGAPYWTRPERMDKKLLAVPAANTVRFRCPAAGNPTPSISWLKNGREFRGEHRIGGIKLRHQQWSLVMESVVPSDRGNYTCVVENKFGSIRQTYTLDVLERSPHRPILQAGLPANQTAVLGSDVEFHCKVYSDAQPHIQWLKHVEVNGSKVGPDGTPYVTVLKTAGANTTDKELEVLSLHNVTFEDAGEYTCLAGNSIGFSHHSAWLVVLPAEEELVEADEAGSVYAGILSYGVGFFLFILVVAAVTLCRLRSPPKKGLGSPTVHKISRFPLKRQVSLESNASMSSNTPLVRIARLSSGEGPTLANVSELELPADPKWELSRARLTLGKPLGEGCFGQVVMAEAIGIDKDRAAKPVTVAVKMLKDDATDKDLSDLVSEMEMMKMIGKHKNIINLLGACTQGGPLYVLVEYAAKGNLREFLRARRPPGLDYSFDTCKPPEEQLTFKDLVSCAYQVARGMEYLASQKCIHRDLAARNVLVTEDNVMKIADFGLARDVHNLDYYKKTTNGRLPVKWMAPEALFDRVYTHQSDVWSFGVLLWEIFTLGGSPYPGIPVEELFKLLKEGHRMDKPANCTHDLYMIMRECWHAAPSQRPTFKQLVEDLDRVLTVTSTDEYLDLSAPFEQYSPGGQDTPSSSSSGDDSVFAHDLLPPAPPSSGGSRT
Protocol: (§1) Kinase-tagged T7 phage strains were prepared in an E. coli host derived from the BL21 strain. E. coli were grown to log-phase and infected with T7 phage and incubated with shaking at 32° C. until lysis. The lysates were centrifuged and filtered to remove cell debris. Streptavidin-coated magnetic beads were treated with biotinylated small molecule ligands for 30 minutes at room temperature to generate affinity resins for kinase assays. The liganded beads were blocked with excess biotin and washed with blocking buffer SeaBlock (Pierce), 1% BSA, 0.05% Tween 20, 1 mM DTT to remove unbound ligand and to reduce non-specific binding. Binding reactions were assembled by combining kinases, liganded affinity beads, and test compounds in 1× binding buffer (20% SeaBlock, 0.17×PBS, 0.05% Tween 20, 6 mM DTT).
(§2) Test compounds were prepared as 111× stocks in 100% DMSO. Kds were determined using an 11-point 3-fold compound dilution series with three DMSO control points. All compounds for Kd measurements are distributed by acoustic transfer (non-contact dispensing) in 100% DMSO. The compounds were then diluted directly into the assays such that the final concentration of DMSO was 0.9%. All reactions performed in polypropylene 384-well plate. Each was a final volume of 0.02 ml. The assay plates were incubated at room temperature with shaking for 1 hour and the affinity beads were washed with wash buffer (1×PBS, 0.05% Tween 20). The beads were then re-suspended in elution buffer (1×PBS, 0.05% Tween 20, 0.5 μM non-biotinylated affinity ligand) and incubated at room temperature with shaking for 30 minutes. The kinase concentration in the eluates was measured by qPCR.
(§3) Binding constants were calculated with a standard dose-response curve using the Hill equation: […]
(§4) The Hill Slope was set to −1. Curves were fitted using a non-linear least square fit with the Levenberg-Marquardt algorithm.

[6] = molecular target: T5, FGFR1 (Homo sapiens, UniProt P11362); assay: as above; settings: in vitro binding assay, 11-point 3-fold dilution series
T5 construct: made in house; host or cells: E. coli (BL21-derived) infected with T7 phage
T5 sequence (P11362 22-822): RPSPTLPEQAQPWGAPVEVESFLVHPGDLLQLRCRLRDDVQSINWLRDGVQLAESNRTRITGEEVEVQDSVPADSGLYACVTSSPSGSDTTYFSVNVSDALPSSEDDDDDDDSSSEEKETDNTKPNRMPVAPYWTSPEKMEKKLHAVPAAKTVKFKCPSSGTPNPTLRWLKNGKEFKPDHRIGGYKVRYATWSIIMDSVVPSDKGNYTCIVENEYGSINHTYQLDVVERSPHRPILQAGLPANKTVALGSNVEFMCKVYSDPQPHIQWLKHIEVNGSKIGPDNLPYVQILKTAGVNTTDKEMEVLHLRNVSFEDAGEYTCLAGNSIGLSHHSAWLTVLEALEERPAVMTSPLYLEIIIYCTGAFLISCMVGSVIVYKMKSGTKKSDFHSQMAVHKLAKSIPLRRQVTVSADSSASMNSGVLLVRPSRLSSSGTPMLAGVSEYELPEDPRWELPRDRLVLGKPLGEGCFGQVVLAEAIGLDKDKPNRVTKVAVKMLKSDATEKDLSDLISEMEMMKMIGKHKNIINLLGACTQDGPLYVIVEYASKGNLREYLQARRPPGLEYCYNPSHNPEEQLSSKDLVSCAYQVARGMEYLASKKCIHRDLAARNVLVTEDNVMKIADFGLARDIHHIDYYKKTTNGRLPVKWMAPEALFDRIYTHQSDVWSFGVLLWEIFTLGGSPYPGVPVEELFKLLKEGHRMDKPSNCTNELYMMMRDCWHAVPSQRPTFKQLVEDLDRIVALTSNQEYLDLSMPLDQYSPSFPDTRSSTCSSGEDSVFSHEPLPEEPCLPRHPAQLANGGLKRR
Protocol: as §1, §2, §3, §4

[7] = molecular target: T6, FGFR3 (V555M) (Homo sapiens, UniProt P22607, V555M); assay: as above; settings: in vitro binding assay, 11-point 3-fold dilution series
T6 construct: made in house; host or cells: E. coli (BL21-derived) infected with T7 phage
T6 sequence (P22607 23-806 V555M): as the sequence (P22607 23-806) above, with V533M counted along it
Protocol: as §1, §2, §3, §4

[8] = molecular target: T7, FGFR2 (Homo sapiens, UniProt P21802); assay: as above; settings: in vitro binding assay, 11-point 3-fold dilution series
T7 construct: made in house; host or cells: E. coli (BL21-derived) infected with T7 phage
T7 sequence (P21802 22-821): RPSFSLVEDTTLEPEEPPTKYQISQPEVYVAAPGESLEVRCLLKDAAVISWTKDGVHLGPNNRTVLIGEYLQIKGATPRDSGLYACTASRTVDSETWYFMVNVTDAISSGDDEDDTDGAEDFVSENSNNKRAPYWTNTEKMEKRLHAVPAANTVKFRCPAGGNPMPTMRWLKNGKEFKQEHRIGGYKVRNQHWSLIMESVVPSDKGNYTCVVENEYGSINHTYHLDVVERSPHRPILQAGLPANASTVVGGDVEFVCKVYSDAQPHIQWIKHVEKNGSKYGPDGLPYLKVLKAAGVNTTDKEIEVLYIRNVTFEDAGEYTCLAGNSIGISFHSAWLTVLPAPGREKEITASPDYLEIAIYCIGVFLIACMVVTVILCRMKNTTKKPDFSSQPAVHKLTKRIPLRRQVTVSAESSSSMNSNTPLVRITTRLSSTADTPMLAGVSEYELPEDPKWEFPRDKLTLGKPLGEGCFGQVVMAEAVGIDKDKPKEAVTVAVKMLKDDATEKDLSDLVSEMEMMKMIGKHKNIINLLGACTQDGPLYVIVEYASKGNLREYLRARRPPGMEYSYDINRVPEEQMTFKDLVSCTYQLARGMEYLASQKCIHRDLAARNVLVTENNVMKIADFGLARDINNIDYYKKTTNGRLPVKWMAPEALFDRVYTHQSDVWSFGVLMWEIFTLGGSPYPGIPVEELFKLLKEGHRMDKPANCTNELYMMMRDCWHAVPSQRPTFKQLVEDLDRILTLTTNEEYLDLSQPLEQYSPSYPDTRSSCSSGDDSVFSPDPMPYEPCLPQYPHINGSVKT
Protocol: as §1, §2, §3, §4

[9] = molecular target: T8, FGFR4 (Homo sapiens, UniProt P22455); assay: as above; settings: in vitro binding assay, 11-point 3-fold dilution series
T8 construct: made in house; host or cells: E. coli (BL21-derived) infected with T7 phage
T8 sequence (P22455 22-802): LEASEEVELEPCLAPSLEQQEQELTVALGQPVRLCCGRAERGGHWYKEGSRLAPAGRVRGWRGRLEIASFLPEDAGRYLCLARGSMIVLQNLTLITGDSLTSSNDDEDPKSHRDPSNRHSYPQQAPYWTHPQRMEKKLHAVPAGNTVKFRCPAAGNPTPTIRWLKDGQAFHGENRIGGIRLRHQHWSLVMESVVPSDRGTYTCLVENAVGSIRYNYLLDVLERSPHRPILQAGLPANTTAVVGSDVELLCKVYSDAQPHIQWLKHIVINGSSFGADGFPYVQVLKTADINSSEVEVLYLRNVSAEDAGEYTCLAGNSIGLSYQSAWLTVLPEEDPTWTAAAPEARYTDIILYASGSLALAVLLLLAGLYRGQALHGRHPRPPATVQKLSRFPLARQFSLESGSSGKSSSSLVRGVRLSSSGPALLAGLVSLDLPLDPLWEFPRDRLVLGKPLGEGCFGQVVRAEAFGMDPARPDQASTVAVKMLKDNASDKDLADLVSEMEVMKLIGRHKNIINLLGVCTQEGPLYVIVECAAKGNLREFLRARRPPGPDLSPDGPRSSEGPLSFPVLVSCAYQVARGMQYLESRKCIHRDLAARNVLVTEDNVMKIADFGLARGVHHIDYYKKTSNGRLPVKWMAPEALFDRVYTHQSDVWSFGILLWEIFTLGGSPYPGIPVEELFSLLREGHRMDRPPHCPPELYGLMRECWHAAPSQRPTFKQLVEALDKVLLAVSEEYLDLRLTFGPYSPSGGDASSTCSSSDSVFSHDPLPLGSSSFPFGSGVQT
Protocol: as §1, §2, §3, §4

[10] = tested on: RT112/84; assay: Cancer cell line cell viability assay (CellTiter-Glo 2.0); type: cell-based; settings: Homo sapiens; RT112/84 (FGFR3-fusion) cell viability, 72 hours
Source text: (§5) Experimental Purpose: To detect the change of intracellular ATP by Cell Titer-Glo® and to evaluate the inhibitory effect of the compounds on cancer cell lines by determining the in vitro IC50 value of the compounds.
(§6) Cell Titer-Glo® 2.0 Luminescent cell viability assay reagent was purchased from Promega (Madison, WI). RT112/84 and KG-1 cell lines were purchased from American Type Culture Collection (Manassas, VA). UM-UC-14 cell line was purchased from Sigma (St. Louis, MO). RT112/84, UM-UC-14, and KG-1 cells were cultured in RPMI1640 media supplemented with 10% fetal bovine serum. Cultures were maintained at 37° C. in a humidified atmosphere of 5% CO2 and 95% air.
(§7) Cell Viability Assay Procedure: Cells were plated in 96-well clear bottom/white plates (Corning #3903) at 10,000 cells/well in 100 μl of media, incubated overnight. The next day, test compound DMSO stock solutions were made at 10 mM and 2 μM final concentration.
(§8) Compounds were then added to cells in a 9-dose, […] dilution series starting at 30 μM with an HP 300e Digital Dispenser (each dose was applied in triplicate). DMSO was backfilled to each well up to 301 nL total volume of test compound+DMSO, and a total of 301 nL DMSO was added to a control/no test compound well in triplicate. The cells in cell culture plates were incubated with the compounds at 37° C. and 5% CO2 for 72 hours. Then 50 μl of Cell Titer Glo 2.0 reagent was added to each well of the cell culture plates. The contents were covered from light and mixed on an orbital shaker at room temperature for 10 min.
(§9) Luminescence was recorded by a Synergy H1 Microplate Reader (Biotek, Winooski, VT). Cells were assessed as a percentage of DMSO only treated control cells. Curves were plotted and IC50 values were calculated using the GraphPad Prism 8 program based on a sigmoidal dose-response equation (4 parameter).

[11] = tested on: KG-1; assay: as above; type: cell-based; settings: Homo sapiens; KG-1 (FGFR1-fusion) cell viability, 72 hours
Source text: as §5, §6, §7, §8, §9

[12] = molecular target: T9, Ba/F3 FGFR3-BAIAP2L1 (Homo sapiens, UniProt P22607); assay: Ba/F3 cell viability assay (CellTiter-Glo 2.0); type: cell-based; settings: Ba/F3 cell data, FGFR3-BAIAP2L1 fusion, 48 hours
T9 construct: BAIAP2L1 (fusion partner, Q9UHR4 if human); host or cells: Ba/F3; the other entry of the earlier key: BAIAP2L1 (Q9UHR4, BAR/IMD domain-containing adapter protein 2-like 1)
T9 sequence (P22607 397-758 limits assumed): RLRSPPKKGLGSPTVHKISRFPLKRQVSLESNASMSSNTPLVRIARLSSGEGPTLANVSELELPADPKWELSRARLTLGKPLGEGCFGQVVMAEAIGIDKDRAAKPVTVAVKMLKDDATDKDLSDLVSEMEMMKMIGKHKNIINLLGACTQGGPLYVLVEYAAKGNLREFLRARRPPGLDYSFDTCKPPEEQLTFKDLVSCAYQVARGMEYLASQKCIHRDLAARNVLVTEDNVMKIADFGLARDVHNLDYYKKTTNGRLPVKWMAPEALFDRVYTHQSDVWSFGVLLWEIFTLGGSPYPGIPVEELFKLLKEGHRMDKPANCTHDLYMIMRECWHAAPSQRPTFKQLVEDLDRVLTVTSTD

T1 sequence (P22455 467-755 limits assumed): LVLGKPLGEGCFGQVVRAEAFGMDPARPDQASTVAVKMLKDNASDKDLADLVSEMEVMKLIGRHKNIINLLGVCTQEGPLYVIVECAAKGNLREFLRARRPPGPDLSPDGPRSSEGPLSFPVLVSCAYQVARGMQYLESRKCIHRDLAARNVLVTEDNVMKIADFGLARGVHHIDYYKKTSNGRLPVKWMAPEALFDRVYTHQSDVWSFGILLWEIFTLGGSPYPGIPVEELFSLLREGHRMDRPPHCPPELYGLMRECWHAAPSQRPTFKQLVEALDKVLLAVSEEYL

Compound	IC50 [2]	Kd [5]	Kd [6]	Kd [7]	Kd [8]	Kd [9]	IC50 [10]	IC50 [11]	Kd [1]	Kd [3]	Kd [4]	Kd [12]
C=CC(=O)N1CC(C(=O)N2CCC(n3nnc(-c4cc(O[C@H](CO)c5ccccn5)c5c(C#N)cnn5c4)c3C)CC2)C1 (single isomer, unassigned) [Example 18]	≥ 1000 nM	0.1 to 100 nM	0.1 to 100 nM	0.1 to 100 nM	0.1 to 100 nM	0.1 to 100 nM	≥ 1000 nM	≥ 1000 nM	≥ 1000 nM	≥ 1000 nM	≥ 1000 nM	250 to 1000 nM
C=CC(=O)N1CCC2(CC1)CC(n1nnc(-c3cc(O[C@H](C)c4ccccn4)c4c(C#N)cnn4c3)c1C)C2 [Example 3, (R)-6-(1-(7-acryloyl-7-azaspiro[3.5]nonan-2-yl)-5-methyl-1H-1,2,3-triazol-4-yl)-4-(1-(pyridin-2-yl)ethoxy)pyrazolo[1,5-a]pyridine-3-carbonitrile]	0.1 to 100 nM	0.1 to 100 nM	0.1 to 100 nM	–	–	–	0.1 to 100 nM	0.1 to 100 nM	100 to 250 nM	0.1 to 100 nM	0.1 to 100 nM	0.1 to 100 nM
C=CC(=O)N1CC(OC)(C(=O)N2CCC(n3nnc(-c4cc(O[C@@H](CO)c5ccccn5)c5c(C#N)cnn5c4)c3C)CC2)C1 [Example 21, (R)-6-(1-(1-(1-acryloyl-3-methoxyazetidine-3-carbonyl)piperidin-4-yl)-5-methyl-1H-1,2,3-triazol-4-yl)-4-(2-hydroxy-1-(pyridin-2-yl)ethoxy)pyrazolo[1,5-a]pyridine-3-carbonitrile]	–	100 to 250 nM	≥ 1000 nM	250 to 1000 nM	250 to 1000 nM	≥ 1000 nM	–	–	≥ 1000 nM	≥ 1000 nM	≥ 1000 nM	≥ 1000 nM
COC1(C(=O)N2CCC(n3nnc(-c4cc(OC(CO)c5ccccn5)c5c(C#N)cnn5c4)c3C)CC2)CN(C(=O)/C=C/CN(C)C)C1 (stereo not drawn) [Example 23, (E)-6-(1-(1-(1-(4-(dimethylamino)but-2-enoyl)-3-methoxyazetidine-3-carbonyl)piperidin-4-yl)-5-methyl-1H-1,2,3-triazol-4-yl)-4-(2-hydroxy-1-(pyridin-2-yl)ethoxy)pyrazolo[1,5-a]pyridine-3-carbonitrile]	–	0.1 to 100 nM	0.1 to 100 nM	0.1 to 100 nM	0.1 to 100 nM	0.1 to 100 nM	–	–	≥ 1000 nM	≥ 1000 nM	≥ 1000 nM	250 to 1000 nM

Further lines, with some results ahead:

IC50 [2]	Kd [5]	Kd [6]	Kd [7]	Kd [8]	Kd [9]	IC50 [10]	IC50 [11]	Compound	Kd [1]	Kd [3]	Kd [4]	Kd [12]
≥ 1000 nM	0.1 to 100 nM	0.1 to 100 nM	0.1 to 100 nM	0.1 to 100 nM	0.1 to 100 nM	100 to 250 nM	250 to 1000 nM	C=CC(=O)N1CC(F)(C(=O)N2CCC(n3nnc(-c4cc(O[C@H](CO)c5ccccn5)c5c(C#N)cnn5c4)c3C)CC2)C1 (single isomer, unassigned) [Example 20]	≥ 1000 nM	≥ 1000 nM	≥ 1000 nM	0.1 to 100 nM
–	100 to 250 nM	250 to 1000 nM	250 to 1000 nM	250 to 1000 nM	≥ 1000 nM	–	–	C=CC(=O)N1CCC2(CC1)CC(n1nnc(-c3cc(O[C@@H](CO)c4ccc(F)cn4)c4c(C#N)cnn4c3)c1C)C2 [Example 12, (R)-6-(1-(7-acryloyl-7-azaspiro[3.5]nonan-2-yl)-5-methyl-1H-1,2,3-triazol-4-yl)-4-(1-(5-fluoropyridin-2-yl)-2-hydroxyethoxy)pyrazolo[1,5-a]pyridine-3-carbonitrile]	≥ 1000 nM	≥ 1000 nM	≥ 1000 nM	250 to 1000 nM
–	0.1 to 100 nM	0.1 to 100 nM	0.1 to 100 nM	0.1 to 100 nM	0.1 to 100 nM	–	–	C=CC(=O)N1CCC2(CC1)CC(n1ncc(-c3cc(OC(CO)c4cncc5ccccc45)c4c(C#N)cnn4c3)c1C)C2 (stereo not drawn) [Example 15, 6-(1-(7-acryloyl-7-azaspiro[3.5]nonan-2-yl)-5-methyl-1H-pyrazol-4-yl)-4-(2-hydroxy-1-(isoquinolin-4-yl)ethoxy)pyrazolo[1,5-a]pyridine-3-carbonitrile]	250 to 1000 nM	100 to 250 nM	100 to 250 nM	0.1 to 100 nM
–	0.1 to 100 nM	0.1 to 100 nM	0.1 to 100 nM	0.1 to 100 nM	0.1 to 100 nM	–	–	CCC(=O)N1CCC2(CC1)CC(n1cc(-c3cc(O[C@H](CO)c4ccc(F)cn4)c4c(C#N)cnn4c3)cn1)C2 [Example 28, (S)-4-(1-(5-fluoropyridin-2-yl)-2-hydroxyethoxy)-6-(1-(7-propionyl-7-azaspiro[3.5]nonan-2-yl)-1H-pyrazol-4-yl)pyrazolo[1,5-a]pyridine-3-carbonitrile]	100 to 250 nM	100 to 250 nM	0.1 to 100 nM	0.1 to 100 nM
